Measured values: patent EP4725957A1, “GROUP OF CYCLIC ALKALINE LIPOPEPTIDE COMPOUNDS, AND PREPARATION METHOD THEREFOR AND USE THEREOF” (Institute of Medicinal Biotechnology, Chinese Academy of …, priority 2023, dated 2024)
In brackets after ≈: the same amount, converted by molar mass. Bridge positions count the residues as written; N and C are the ends. Square brackets hold non-standard residues; d marks the D form. Peptide text beside a SMILES is read from it. * marks the point of attachment. Heptanoyl(6-Me) = CC(C)CCCCC(=O)*; dOrn = NCCC[C@@H](N)C(=O)O; Nonanoyl = CCCCCCCCC(=O)*; X1 = CC[C@H](C)CCCCC(=O)*; dDab = NCC[C@@H](N)C(=O)O; Heptanoyl = CCCCCCC(=O)*; Octanoyl = CCCCCCCC(=O)*; Orn = NCCC[C@H](N)C(=O)O; Dab = NCC[C@H](N)C(=O)O; Dap = NC[C@H](N)C(=O)O

Experiments:
Type in all cases: cell-based
[1] = Nephrotoxicity assay: in vitro cytotoxicity of HK-2 cells by CCK-8 assay; settings: human, HK-2 cells (human renal), 72 h incubation with drug-containing medium
Procedure, shortened: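 HK-2 human renal cells in RPMI-1640 with 10% FBS were exposed to compounds at final 12.5–500 µg/mL for 72 h, then CCK-8 for 3 h and OD450 read. Viability was normalised to drug-free wells; IC50 came from logarithmic regression over three repeats, with polymyxin B as positive drug.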

[2] = test system: Klebsiella pneumoniae KPN+19-15; settings: KPN+19-15
Procedure, shortened: (§1)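 Minimal inhibitory concentrations are measured following CLSI microdilution guidance in MH broth. Test concentrations run from 64 down to 0.03 mg/L in doubling steps, with a final bacterial load of (2-4) × 10^5 CFU/mL and 16-20 h incubation at 35-37°C.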

[3] = test system: Pseudomonas aeruginosa PAE19-3; settings: PAE19-3
Procedure, shortened: as §1

[4] = test system: Acinetobacter baumannii ABA19-1; settings: ABA19-1
Procedure, shortened: as §1

[5] = test system: Acinetobacter baumannii NCTC 13304 (OXA-27); settings: NCTC 13304
Procedure, shortened: as §1

[6] = test system: Pseudomonas aeruginosa ATCC 27853; settings: ATCC 27853
Procedure, shortened: as §1

[7] = test system: Escherichia coli ATCC BAA-2340 (KPC); settings: ATCC BAA-2340
Procedure, shortened: as §1

[8] = test system: Klebsiella pneumoniae ATCC BAA-1705 (KPC); settings: ATCC BAA-1705
Procedure, shortened: as §1

[9] = test system: Escherichia coli ATCC BAA-2523; settings: ATCC BAA-2523
Procedure, shortened: as §1

Structure (SMILES)	IC50 at 72 h [1] [µg/mL]	MIC [2] [µg/mL]	MIC [3] [µg/mL]	MIC [4] [µg/mL]	MIC [5] [µg/mL]	MIC [6] [µg/mL]	MIC [7] [µg/mL]	MIC [8] [µg/mL]	MIC [9] [µg/mL]
CC[C@H](C)CCCCC(=O)N[C@@H](CCN)C(=O)N[C@H](C(=O)N[C@@H](CCN)C(=O)N[C@H]1CCNC(=O)[C@H]([C@@H](C)O)NC(=O)[C@H](CCN)NC(=O)[C@H](CCN)NC(=O)[C@H]([C@@H](C)O)NC(=O)[C@@H](Cc2ccccc2)NC(=O)[C@H](CCN)NC1=O)[C@@H](C)O [Compound 16, (S)-6-methyloctanoyl-Dab-Thr-Dab-ring(4-10)[Dab-Dab-D-Phe-Thr-Dab-Dab-Thr]] (X1-[Dab]T[Dab][Dab][Dab][dF]T[Dab][Dab]T; lactam 4-C)	> 500	≤0.03	0.5 (≈ 0.42 µM)	≤0.03	≤0.03	0.5 (≈ 0.42 µM)	≤0.03	≤0.03	≤0.03
CC[C@H](C)CCCCC(=O)N[C@@H](CN)C(=O)N[C@H](C(=O)N[C@H](CCN)C(=O)N[C@H]1CCNC(=O)[C@H]([C@@H](C)O)NC(=O)[C@H](CCN)NC(=O)[C@H](CCN)NC(=O)[C@H](CC(C)C)NC(=O)[C@@H](Cc2ccccc2)NC(=O)[C@H](CCN)NC1=O)[C@@H](C)O [Compound 91, (S)-6-methyloctanoyl-Dap-Thr-D-Dab-ring(4-10)[Dab-Dab-D-Phe-Leu-Dab-Dab-Thr]] (X1-[Dap]T[dDab][Dab][Dab][dF]L[Dab][Dab]T; lactam 4-C)	126 ± 19.2 (≈ 106 µM)	0.03 (≈ 0.0252 µM)	0.5 (≈ 0.42 µM)	0.03 (≈ 0.0252 µM)	0.03 (≈ 0.0252 µM)	0.5 (≈ 0.42 µM)	0.03 (≈ 0.0252 µM)	0.03 (≈ 0.0252 µM)	0.03 (≈ 0.0252 µM)
CCCCCCCCC(=O)N[C@@H](CCN)C(=O)N[C@H](C(=O)N[C@@H](CCCN)C(=O)N[C@H]1CCNC(=O)[C@H]([C@@H](C)O)NC(=O)[C@H](CCN)NC(=O)[C@H](CCN)NC(=O)[C@H](CC(C)C)NC(=O)[C@@H](Cc2ccccc2)NC(=O)[C@H](CCN)NC1=O)[C@@H](C)O [Compound 50, Nonanoyl-Dab-Thr-Orn-ring(4-10)[Dab-Dab-D-Phe-Leu-Dab-Dab-Thr]] (Nonanoyl-[Dab]T[Orn][Dab][Dab][dF]L[Dab][Dab]T; lactam 4-C)	150 ± 5.2 (≈ 123 µM)	0.03 (≈ 0.0246 µM)	0.5 (≈ 0.411 µM)	0.125 (≈ 0.103 µM)	0.06 (≈ 0.0493 µM)	0.03 (≈ 0.0246 µM)	0.06 (≈ 0.0493 µM)	0.03 (≈ 0.0246 µM)	0.06 (≈ 0.0493 µM)
CCCCCCCCC(=O)N[C@@H](CCN)C(=O)N[C@H](C(=O)N[C@H](CO)C(=O)N[C@H]1CCNC(=O)[C@H]([C@@H](C)O)NC(=O)[C@H](CCN)NC(=O)[C@H](CCCN)NC(=O)[C@H]([C@@H](C)O)NC(=O)[C@@H](Cc2ccccc2)NC(=O)[C@H](CCN)NC1=O)[C@@H](C)O [Compound 80, Nonanoyl-Dab-Thr-D-Ser-ring(4-10)[Dab-Dab-D-Phe-Thr-Orn-Dab-Thr]] (Nonanoyl-[Dab]T[dS][Dab][Dab][dF]T[Orn][Dab]T; lactam 4-C)	288 ± 19.5 (≈ 241 µM)	0.5 (≈ 0.419 µM)	64 (≈ 53.7 µM)	0.06 (≈ 0.0503 µM)	0.03 (≈ 0.0252 µM)	>64	0.06 (≈ 0.0503 µM)	0.25 (≈ 0.21 µM)	0.06 (≈ 0.0503 µM)
CCCCCCCCC(=O)N[C@@H](CCN)C(=O)N[C@H](C(=O)N[C@H](CO)C(=O)N[C@H]1CCNC(=O)[C@H]([C@@H](C)O)NC(=O)[C@H](CCCN)NC(=O)[C@H](CCN)NC(=O)[C@H]([C@@H](C)O)NC(=O)[C@@H](Cc2ccccc2)NC(=O)[C@H](CCN)NC1=O)[C@@H](C)O [Compound 90, Nonanoyl-Dab-Thr-D-Ser-ring(4-10)[Dab-Dab-D-Phe-Thr-Dab-Orn-Thr]] (Nonanoyl-[Dab]T[dS][Dab][Dab][dF]T[Dab][Orn]T; lactam 4-C)	320 ± 23.6 (≈ 268 µM)	0.5 (≈ 0.419 µM)	64 (≈ 53.7 µM)	0.06 (≈ 0.0503 µM)	0.03 (≈ 0.0252 µM)	>64	0.25 (≈ 0.21 µM)	0.25 (≈ 0.21 µM)	0.25 (≈ 0.21 µM)
CCCCCCC(=O)N[C@@H](CCN)C(=O)N[C@H](C(=O)N[C@@H](CN)C(=O)N[C@H]1CCNC(=O)[C@H]([C@@H](C)O)NC(=O)[C@H](CCN)NC(=O)[C@H](CCN)NC(=O)[C@H]([C@@H](C)O)NC(=O)[C@@H](Cc2ccccc2)NC(=O)[C@H](CCN)NC1=O)[C@@H](C)O [Compound 9, Heptanoyl-Dab-Thr-Dap-ring(4-10)[Dab-Dab-D-Phe-Thr-Dab-Dab-Thr]] (Heptanoyl-[Dab]T[Dap][Dab][Dab][dF]T[Dab][Dab]T; lactam 4-C)	> 500	0.03 (≈ 0.0261 µM)	0.25 (≈ 0.218 µM)	0.03 (≈ 0.0261 µM)	0.03 (≈ 0.0261 µM)	0.125 (≈ 0.109 µM)	0.03 (≈ 0.0261 µM)	0.03 (≈ 0.0261 µM)	0.03 (≈ 0.0261 µM)
CC[C@H](C)CCCCC(=O)N[C@@H](CCN)C(=O)N[C@H](C(=O)N[C@H](CO)C(=O)N[C@H]1CCNC(=O)[C@H]([C@@H](C)O)NC(=O)[C@H](CN)NC(=O)[C@H](CCN)NC(=O)[C@H]([C@@H](C)O)NC(=O)[C@@H](Cc2ccccc2)NC(=O)[C@H](CCN)NC1=O)[C@@H](C)O [Compound 81, (S)-6-methyloctanoyl-Dab-Thr-D-Ser-ring(4-10)[Dab-Dab-D-Phe-Thr-Dab-Dap-Thr]] (X1-[Dab]T[dS][Dab][Dab][dF]T[Dab][Dap]T; lactam 4-C)	> 500	0.5 (≈ 0.429 µM)	64 (≈ 55 µM)	0.06 (≈ 0.0515 µM)	≤0.03	>64	0.03 (≈ 0.0258 µM)	0.25 (≈ 0.215 µM)	0.03 (≈ 0.0258 µM)
CCCCCCCCC(=O)N[C@@H](CCN)C(=O)N[C@H](C(=O)N[C@@H](CCN)C(=O)N[C@H]1CCNC(=O)[C@H]([C@@H](C)O)NC(=O)[C@H](CCN)NC(=O)[C@H](CCN)NC(=O)[C@H]([C@@H](C)O)NC(=O)[C@@H](Cc2ccccc2)NC(=O)[C@H](CCN)NC1=O)[C@@H](C)O [Compound 20, Nonanoyl-Dab-Thr-Dab-ring(4-10)[Dab-Dab-D-Phe-Thr-Dab-Dab-Thr]] (Nonanoyl-[Dab]T[Dab][Dab][Dab][dF]T[Dab][Dab]T; lactam 4-C)	280 ± 10.3 (≈ 235 µM)	0.06 (≈ 0.0504 µM)	2 (≈ 1.68 µM)	0.5 (≈ 0.42 µM)	0.25 (≈ 0.21 µM)	2 (≈ 1.68 µM)	0.06 (≈ 0.0504 µM)	0.06 (≈ 0.0504 µM)	0.06 (≈ 0.0504 µM)
CCCCCCC(=O)N[C@@H](CCCN)C(=O)N[C@H](C(=O)N[C@H](CO)C(=O)N[C@H]1CCNC(=O)[C@H]([C@@H](C)O)NC(=O)[C@H](CCN)NC(=O)[C@H](CCN)NC(=O)[C@H]([C@@H](C)O)NC(=O)[C@@H](Cc2ccccc2)NC(=O)[C@H](CCN)NC1=O)[C@@H](C)O [Compound 59, Heptanoyl-Orn-Thr-D-Ser-ring(4-10)[Dab-Dab-D-Phe-Thr-Dab-Dab-Thr]] (Heptanoyl-[Orn]T[dS][Dab][Dab][dF]T[Dab][Dab]T; lactam 4-C)	> 500	0.5 (≈ 0.429 µM)	8 (≈ 6.87 µM)	0.25 (≈ 0.215 µM)	0.25 (≈ 0.215 µM)	64 (≈ 55 µM)	0.25 (≈ 0.215 µM)	0.25 (≈ 0.215 µM)	0.25 (≈ 0.215 µM)
CCCCCCCC(=O)N[C@@H](CCN)C(=O)N[C@H](C(=O)N[C@H](CCN)C(=O)N[C@H]1CCNC(=O)[C@H]([C@@H](C)O)NC(=O)[C@H](CCN)NC(=O)[C@H](CCN)NC(=O)[C@H]([C@@H](C)O)NC(=O)[C@@H](Cc2ccccc2)NC(=O)[C@H](CCN)NC1=O)[C@@H](C)O [Compound 13, Octanoyl-Dab-Thr-D-Dab-ring(4-10)[Dab-Dab-D-Phe-Thr-Dab-Dab-Thr]] (Octanoyl-[Dab]T[dDab][Dab][Dab][dF]T[Dab][Dab]T; lactam 4-C)	> 500	≤0.03	1 (≈ 0.849 µM)	≤0.03	≤0.03	1 (≈ 0.849 µM)	≤0.03	0.06 (≈ 0.051 µM)	≤0.03
CC(C)CCCCC(=O)N[C@@H](CCN)C(=O)N[C@H](C(=O)N[C@H](CCCN)C(=O)N[C@H]1CCNC(=O)[C@H]([C@@H](C)O)NC(=O)[C@H](CCN)NC(=O)[C@H](CCN)NC(=O)[C@H](CC(C)C)NC(=O)[C@@H](Cc2ccccc2)NC(=O)[C@H](CCN)NC1=O)[C@@H](C)O [Compound 42, 6-methylheptanoyl-Dab-Thr-D-Orn-ring(4-10)[Dab-Dab-D-Phe-Leu-Dab-Dab-Thr]] ({Heptanoyl(6-Me)}-[Dab]T[dOrn][Dab][Dab][dF]L[Dab][Dab]T; lactam 4-C)	316 ± 6.7 (≈ 262 µM)	0.125 (≈ 0.104 µM)	1 (≈ 0.831 µM)	0.125 (≈ 0.104 µM)	0.06 (≈ 0.0499 µM)	0.25 (≈ 0.208 µM)	0.03 (≈ 0.0249 µM)	0.06 (≈ 0.0499 µM)	0.03 (≈ 0.0249 µM)
